According to US20130109726A1, “SUSTAINED-RELEASE THERAPEUTIC AGENT FOR HYPERTENSION AND RENAL DYSFUNCTION” (TEIJIN PHARMA LIMITED, priority 2010, published 2013):

Experiments:
[1] = tested on: spontaneously hypertensive rats (SHR); assay: Systolic blood pressure by Tail-Cuff method in spontaneous hypertension model (SHR); format: in vivo, rat
Method: The effects of the immediate-release and sustained-release administrations of febuxostat in a spontaneous hypertension model were ascertained. Male spontaneously hypertensive rats (SHR) aged 12 weeks were subjected to quarantine for a week or more before used as subjects. From 13 weeks of age, habituation to blood pressure measurement with a Tail-Cuff sphygmomanometer (BP-2000, Visitech systems, Napa Place, N.C., USA) was performed for two weeks. At 15 weeks of age after the completion of the habituation, blood pressure was measured, and the subjects were divided into three groups (10 subjects in each group), such that the systolic blood pressures were evenly distributed. Subsequently, the administrations were started. Group 1, a control group, was given tap water. Group 2 was given febuxostat in drinking water. Group 3 was given febuxostat by oral gavage.
The administration in drinking water was performed by giving the subjects access to an aqueous solution of febuxostat ad libitum. In this manner, prolonged drug exposure to the blood, i.e, sustained-release administration can be accomplished, as compared to a single oral administration. On the other hand, the oral administration was performed by giving a suspension of febuxostat in 0.5% MC solution (with a concentration of febuxostat of 2 mg/mL) at 5 mL/kg by oral gavage. The blood level of the drug rapidly increases after the administration and diclines soon. Thus, immediate-release administration can be accomplished in this manner. After 18 days of administration, systolic blood pressure was measured by the Tail-Cuff method.

[2] = tested on: adriamycin-induced nephropathy mouse model; assay: Urine albumin excretion in adriamycin-induced nephropathy mouse model; format: in vivo
Method: The effects of the immediate-release and sustained-release administrations of febuxostat in an adriamycin-induced nephropathy mouse model were ascertained. The adriamycin-induced nephropathy model is known as a renal dysfunction model in which lesions occur in glomerular epithelial cells and proteinuria is observed.
Male BALB/cAnNCrlCrlj mice aged 7 weeks were subjected to quarantine for a week or more before used as subjects.
At 8 weeks of age, a 24-hour urine collection was performed and the concentration of albumin in the collected urine was measured by ELISA. The subjects were divided into three groups, such that the amounts of albumin excretion were evenly distributed. Subsequently, the administrations were started. Group 1, a control group, was given tap water. Group 2 was given febuxostat in drinking water. Group 3 was given febuxostat by oral gavage.
The administration in drinking water was performed by giving the subjects access to an aqueous solution of febuxostat ad libitum. In this manner, prolonged drug exposure, i.e, sustained-release administration can be accomplished, as compared to a single oral administration. On the other hand, the oral administration was performed by giving a suspension of febuxostat in 0.5% MC solution by oral gavage via a tube. The blood level of the drug rapidly increases after the administration and diclines soon. Thus, immediate-release administration can be accomplished in this manner. Following the initiation of dosing on the first day, adriamycin was given to mice via tail vein at 10 mg/kg. Then, the administrations were conducted for 5 consecutive days. A 24-hour urine collection was performed 5 days after onset of drug administration and the amount of albumin in the collected urine was measured as previously described.

## Cc1nc(-c2ccc(OCC(C)C)c(C#N)c2)sc1C(=O)O [febuxostat, 2-(3-cyano-4-isobutyloxyphenyl)-4-methyl-5-thiazole carboxylic acid]
[1]; Group 2, sustained-release administration, 1.5 mg/kg/day in drinking water, Day 18 of dosing
  systolic blood pressure (mean±standard error): 199 ± 3 mmHg
[1]; Group 2, sustained-release administration, 1.5 mg/kg/day in drinking water, Pre-dose
  systolic blood pressure (mean±standard error): 203 ± 3 mmHg
[1]; Group 3, immediate-release administration, 10 mg/kg/day oral gavage, Day 18 of dosing
  systolic blood pressure (mean±standard error): 217 ± 3 mmHg
[1]; Group 3, immediate-release administration, 10 mg/kg/day oral gavage, Pre-dose
  systolic blood pressure (mean±standard error): 201 ± 4 mmHg
[1]; SHR, 18 days of administration
  blood pressure lowering, sustained-release versus immediate-release administration: blood pressure was more strongly lowered by administering febuxostat in a sustained-release manner
[2]; Group 2, sustained-release administration, 3 mg/kg/day in drinking water, Day 0
  Urine albumin excretion (mean±standard error): 0.1 ± 0.1 mg/day
[2]; Group 2, sustained-release administration, 3 mg/kg/day in drinking water, Day 5, adriamycin 10 mg/kg i.v.
  Urine albumin excretion (mean±standard error): 9.5 ± 3.9 mg/day
[2]; Group 3, immediate-release administration, 3 mg/kg/day oral gavage, Day 0
  Urine albumin excretion (mean±standard error): 0.1 ± 0.1 mg/day
[2]; Group 3, immediate-release administration, 3 mg/kg/day oral gavage, Day 5, adriamycin 10 mg/kg i.v.
  Urine albumin excretion (mean±standard error): 18.4 ± 9.7 mg/day
[2]; adriamycin-induced nephropathy mice, 5 days of administration
  amelioration of renal dysfunction, sustained-release versus immediate-release administration: renal dysfunction was more effectively ameliorated by administering febuxostat in a sustained-manner
